Target: T1, ΔF508-CFTR (Homo sapiens, UniProt P13569, DEL508-508)
T1 construct: expressed in transfected cells
Experiment: Membrane potential optical (FRET/VIPR) assay, identification of correction compounds
Type: cell-based
Conditions: Table 3, assay not given; for Emax: read-out: % Activity / % Efficacy (relative efficacy)
In short: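 NIH3T3 mouse fibroblasts stably expressing ΔF508-CFTR were exposed to compound for 16 h at 37° C in serum-free medium, then loaded with DiSBAC2(3)/CC2-DMPE. After addition of 10 μM forskolin plus 20 μM genistein in Cl⁻-free gluconate bath (pH 7.4), depolarization from Cl⁻ efflux was read by FRET (VIPR II).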

T1 sequence (P13569 with tags, fused parts or gaps DEL508-508): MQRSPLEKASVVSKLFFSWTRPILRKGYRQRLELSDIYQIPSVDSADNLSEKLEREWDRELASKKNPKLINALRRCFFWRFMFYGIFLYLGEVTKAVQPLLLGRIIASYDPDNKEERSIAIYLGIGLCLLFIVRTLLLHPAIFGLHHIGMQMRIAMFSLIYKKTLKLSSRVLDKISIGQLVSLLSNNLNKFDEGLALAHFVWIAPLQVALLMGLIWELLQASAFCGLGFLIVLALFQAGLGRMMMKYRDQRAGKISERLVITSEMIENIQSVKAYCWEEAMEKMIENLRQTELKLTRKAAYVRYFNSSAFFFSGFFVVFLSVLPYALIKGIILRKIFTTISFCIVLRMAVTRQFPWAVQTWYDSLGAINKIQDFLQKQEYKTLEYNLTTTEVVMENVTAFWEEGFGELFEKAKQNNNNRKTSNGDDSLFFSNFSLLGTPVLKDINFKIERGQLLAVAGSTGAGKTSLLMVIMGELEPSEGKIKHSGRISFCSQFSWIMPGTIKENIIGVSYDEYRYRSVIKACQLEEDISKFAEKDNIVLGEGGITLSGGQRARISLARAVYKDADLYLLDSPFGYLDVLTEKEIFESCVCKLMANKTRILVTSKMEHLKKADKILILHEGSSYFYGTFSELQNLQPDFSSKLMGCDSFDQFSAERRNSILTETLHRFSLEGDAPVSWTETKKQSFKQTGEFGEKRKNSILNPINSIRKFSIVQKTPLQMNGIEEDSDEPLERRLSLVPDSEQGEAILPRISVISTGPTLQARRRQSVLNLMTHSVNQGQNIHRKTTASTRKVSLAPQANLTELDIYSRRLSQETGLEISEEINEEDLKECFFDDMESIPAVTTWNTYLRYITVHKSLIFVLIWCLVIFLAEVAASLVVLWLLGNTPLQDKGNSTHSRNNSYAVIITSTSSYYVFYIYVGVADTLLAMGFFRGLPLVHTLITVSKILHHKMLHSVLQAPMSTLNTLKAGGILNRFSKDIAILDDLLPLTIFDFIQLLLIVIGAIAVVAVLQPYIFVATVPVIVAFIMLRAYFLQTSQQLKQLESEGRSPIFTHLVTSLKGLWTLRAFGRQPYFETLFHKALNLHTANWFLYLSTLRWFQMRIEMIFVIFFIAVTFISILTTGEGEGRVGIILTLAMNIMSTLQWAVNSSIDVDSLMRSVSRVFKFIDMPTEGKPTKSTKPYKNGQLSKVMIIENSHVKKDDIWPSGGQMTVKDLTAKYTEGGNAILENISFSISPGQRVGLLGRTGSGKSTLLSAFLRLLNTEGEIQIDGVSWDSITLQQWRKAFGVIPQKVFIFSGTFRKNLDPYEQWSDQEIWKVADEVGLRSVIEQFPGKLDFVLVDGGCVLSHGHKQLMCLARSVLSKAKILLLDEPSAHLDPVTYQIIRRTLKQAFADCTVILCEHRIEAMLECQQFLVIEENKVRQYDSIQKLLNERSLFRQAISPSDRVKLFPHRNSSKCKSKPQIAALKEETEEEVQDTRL

| % Activity / % Efficacy (relative efficacy) | EC50 | Emax | SMILES |
| --- | --- | --- | --- |
|  | < 10 µM | > 100% | CC(C)(C)CCNC(c1cnc(NC(=O)C2(c3ccc4c(c3)OCO4)CC2)s1)c1ccccc1Cl (stereo not drawn) [Example 428] |
| +++ (“+++” means>100%) | < 10 µM |  | Cc1ccc(-c2csc(NC(=O)C3(c4ccc5c(c4)OCO5)CC3)n2)cc1 [Example 82] |
|  | < 10 µM | > 100% | Cn1nnc2cc(C3(C(=O)Nc4ncc(Cc5ccccc5Cl)s4)CC3)ccc21 [Example 304] |
|  | < 10 µM | > 100% | CC(C)(C)[C@H](CO)NC(c1cnc(NC(=O)C2(c3ccc4c(c3)OCO4)CC2)s1)c1ccccc1Cl (stereo partly drawn) [Example 488] |
| +++ (“+++” means>100%) | < 10 µM |  | O=C(O)c1cccc(Sc2cnc(NC(=O)C3(c4ccc5c(c4)OCO5)CC3)s2)c1 [Example 106] |
|  | < 10 µM | > 100% | COc1cccc(C2(C(=O)Nc3ncc(C(c4ccccc4Cl)N4CC[C@@H](O)C4)s3)CC2)c1 (stereo partly drawn) [Example 452] |
| +++ (“+++” means>100%) | < 10 µM |  | COc1ccc(C2(C(=O)Nc3nc(-c4ccc(Cl)cc4)cs3)CC2)cc1 [Example 78] |
| +++ (“+++” means>100%) | < 10 µM |  | COc1ccc(C2(C(=O)Nc3ncc(Cc4ccncc4Cl)s3)CC2)cc1 [Example 262] |
| ++ (“++” means between 25% to 100%) | 25 to 60 µM |  | CCN(CC)CCN(C(=O)C1(c2ccc(OC)cc2)CC1)c1ncc(Cc2ccccc2Cl)s1 [Example 75] |
|  | < 10 µM | > 100% | CN(C1CCCCC1)C(c1cnc(NC(=O)C2(c3ccc4c(c3)OCO4)CC2)s1)c1ccccc1Cl (stereo not drawn) [Example 413] |
|  | < 10 µM | > 100% | Cc1ccccc1C(c1cnc(NC(=O)C2(c3ccc4c(c3)OCO4)CC2)s1)N1CCCC1 (stereo not drawn) [Example 469] |
|  | < 10 µM | > 100% | COC[C@@H]1CCCN1C(Cc1ccccc1Cl)c1cnc(NC(=O)C2(c3ccc4c(c3)OCO4)CC2)s1 (stereo partly drawn) [Example 456] |
| ++ (“++” means between 25% to 100%) | < 10 µM |  | COc1ccc(C2(C(=O)Nc3cnc(Cc4ccccc4Cl)s3)CC2)cc1 [Example 270] |
|  | < 10 µM | > 100% | O=C(Nc1ncc(C(Cc2ccccc2Cl)N2CC[C@@H](O)C2)s1)C1(c2ccc3c(c2)OCO3)CC1 (stereo partly drawn) [Example 462] |
| ++ (“++” means between 25% to 100%) | < 10 µM |  | O=C(Nc1ncc(C(NCCN2CCOCC2)c2ccccc2Cl)s1)C1(c2ccc3c(c2)OCO3)CC1 (stereo not drawn) [Example 188] |
|  | < 10 µM | > 100% | CCCN(CC1CC1)C(c1cnc(NC(=O)C2(c3ccc4c(c3)OCO4)CC2)s1)c1ccccc1Cl (stereo not drawn) [Example 435] |
| +++ (“+++” means>100%) | < 10 µM |  | COc1ccc(C2(C(=O)Nc3nc(-c4ccc(C)cc4)cs3)CC2)cc1 [Example 77] |

| % Activity / % Efficacy (relative efficacy) | EC50 | Emax | SMILES |
| --- | --- | --- | --- |
| ++ (“++” means between 25% to 100%) | < 10 µM |  | O=C(Nc1ncc(C(c2ccccc2Cl)N2CCOCC2)s1)C1(c2ccc3c(c2)OCO3)CC1 (stereo not drawn) [Example 203] |
|  | 10 to 25 µM | > 100% | CC(C)(C)C(c1cnc(NC(=O)C2(c3ccc4c(c3)OCO4)CC2)s1)N1CCC(O)CC1 (stereo not drawn) [Example 392] |
|  | 10 to 25 µM | 25 to 100% | CCN(CC)C(c1ccc(S(C)(=O)=O)cc1)c1cnc(NC(=O)C2(c3ccc4c(c3)OCO4)CC2)s1 (stereo not drawn) [Example 376] |
|  | < 10 µM | > 100% | COc1ccccc1C(c1cnc(NC(=O)C2(c3ccc4c(c3)OCO4)CC2)s1)N1CCOCC1 (stereo not drawn) [Example 399] |
|  | < 10 µM | > 100% | Cc1ccc(C2(C(=O)Nc3ncc(C(c4ccccc4Cl)N4CC[C@@H](O)C4)s3)CC2)cc1 (stereo partly drawn) [Example 422] |
| +++ (“+++” means>100%) | < 10 µM |  | CCN(CC)c1ccc(-c2csc(NC(=O)C3(c4ccc5c(c4)OCO5)CC3)n2)cc1 [Example 120] |
|  | < 10 µM | > 100% | COc1ccccc1Cc1cnc(NC(=O)C2(c3ccc(Cl)cc3)CC2)s1 [Example 32] |
|  | < 10 µM | > 100% | COc1cccc(C(c2cnc(NC(=O)C3(c4ccc5c(c4)OCO5)CC3)s2)N2CC[C@@H](O)C2)c1 (stereo partly drawn) [Example 367] |
|  | < 10 µM | > 100% | CCN(CC)C(c1cccc(OC)c1)c1cnc(NC(=O)C2(c3ccc4c(c3)OCO4)CC2)s1 (stereo not drawn) [Example 357] |
|  | 10 to 25 µM | 25 to 100% | O=C(Nc1ncc(CN2CC[C@@H](O)C2)s1)C1(c2ccc3c(c2)OCO3)CC1 [Example 319] |
|  | < 10 µM | > 100% | COc1ccccc1C1(C(=O)Nc2ncc(Cc3ccccc3Cl)s2)CC1 [Example 65] |
|  | < 10 µM | > 100% | CCN(CCO)C(c1cnc(NC(=O)C2(c3ccc4c(c3)OCO4)CC2)s1)c1ccccc1Cl (stereo not drawn) [Example 410] |
| +++ (“+++” means>100%) | < 10 µM |  | Cc1ccc(-c2csc(NC(=O)C3(c4ccc5c(c4)OCO5)CC3)n2)c(C)c1 [Example 127] |
|  |  | > 100% | CCOc1ccccc1C(NC(CO)CC(C)C)c1cnc(NC(=O)C2(c3ccc4c(c3)OCO4)CC2)s1 (stereo not drawn) [Example 476] |
|  | < 10 µM | > 100% | O=C(Nc1ncc(C(NCC2CCCCC2)c2ccccc2Cl)s1)C1(c2ccc3c(c2)OCO3)CC1 (stereo not drawn) [Example 409] |
|  | < 10 µM | > 100% | O=C(Nc1ncc(C(c2ccccc2Cl)N2CC[C@@H](O)C2)s1)C1(c2ccc3c(c2)OC(F)(F)O3)CC1 (stereo partly drawn) [Example 492] |

Second part, the molecule before the results:

| SMILES | % Activity / % Efficacy (relative efficacy) | EC50 | Emax |
| --- | --- | --- | --- |
| COc1ccc(C2(C(=O)Nc3ncc(Cc4ccc(F)cc4C)s3)CC2)cc1 [Example 282] | ++ (“++” means between 25% to 100%) | < 10 µM |  |
| COc1ccccc1C(c1cnc(NC(=O)C2(c3ccc4c(c3)OCO4)CC2)s1)N(C)C (stereo not drawn) [Example 364] |  | 10 to 25 µM | > 100% |
| COc1ccccc1C1(c2cnc(NC(=O)C3(c4ccc5c(c4)OCO5)CC3)s2)CC1 [Example 245] | +++ (“+++” means>100%) | < 10 µM |  |
| COCC1CCCN1C(c1ccc(Cl)cc1)c1cnc(NC(=O)C2(c3ccc4c(c3)OCO4)CC2)s1 (stereo not drawn) [Example 331] |  | < 10 µM | > 100% |
| O=C(Nc1ncc(Sc2cccc(Cl)c2)s1)C1(c2ccc3c(c2)OCO3)CC1 [Example 102] |  | < 10 µM | > 100% |
| COCC1CCCN1C(c1cnc(NC(=O)C2(c3ccc4c(c3)OCO4)CC2)s1)c1ccccc1OC (stereo not drawn) [Example 358] |  | 10 to 25 µM | > 100% |
| COc1ccc(C2(C(=O)Nc3ncc(Cc4ccccc4C)s3)CC2)cc1 [Example 280] | +++ (“+++” means>100%) | < 10 µM |  |
| COc1ccccc1Cc1cnc(NC(=O)C2(c3ccc(OC)c(OC)c3)CC2)s1 [Example 58] | +++ (“+++” means>100%) | < 10 µM |  |
| O=C(Nc1ncc(Cc2cccc(Cl)c2)o1)C1(c2ccc3c(c2)OCO3)CC1 [Example 166] | +++ (“+++” means>100%) | < 10 µM |  |
| COCC1CCCN1C(c1ccc(S(C)(=O)=O)cc1)c1cnc(NC(=O)C2(c3ccc4c(c3)OCO4)CC2)s1 (stereo not drawn) [Example 375] |  | 10 to 25 µM | 25 to 100% |
| O=C(Nc1ncc(Cc2ccccc2Cl)s1)C1(c2cccc(O)c2)CC1 [Example 316] |  | < 10 µM | 25 to 100% |
| COc1ccccc1CCc1cnc(NC(=O)C2(c3ccc4c(c3)OCO4)CC2)s1 [Example 197] | +++ (“+++” means>100%) | < 10 µM |  |
| O=C(Nc1ncc(Cc2ccccc2Cl)s1)C1(c2ccc(OC(F)(F)F)cc2)CC1 [Example 174] | +++ (“+++” means>100%) | < 10 µM |  |
| COc1ccc(CC2(C(=O)Nc3ncc(Cc4ccccc4OC)s3)CC2)cc1 [Example 200] | +++ (“+++” means>100%) | < 10 µM |  |
| O=C(Nc1nnc(-c2ccccc2)s1)C1(c2ccc3c(c2)OCO3)CC1 [Example 293] |  | 10 to 25 µM | 25 to 100% |
| CCN(CC)C(Cc1ccccc1Cl)c1cnc(NC(=O)C2(c3ccc4c(c3)OCO4)CC2)s1 (stereo not drawn) [Example 459] |  | < 10 µM | > 100% |
| O=C1CCCc2nc(NC(=O)C3(c4ccc5c(c4)OCO5)CC3)sc21 [Example 190] | + (“+” means<25%) | 10 to 25 µM |  |
| CCC(c1cnc(NC(=O)C2(c3ccc4c(c3)OCO4)CC2)s1)N1CCCCC1 (stereo not drawn) [Example 403] |  | 10 to 25 µM | > 100% |
| O=C(Nc1ncc(C(Cc2ccccc2Cl)N2CCCC2)s1)C1(c2ccc3c(c2)OCO3)CC1 (stereo not drawn) [Example 453] |  | < 10 µM | 25 to 100% |
| COC[C@@H]1CCCN1C(c1cccc(OC)c1)c1cnc(NC(=O)C2(c3ccc4c(c3)OCO4)CC2)s1 (stereo partly drawn) [Example 345] |  | < 10 µM | 25 to 100% |
| CC(C)(C)[C@@H](CO)NC(c1cnc(NC(=O)C2(c3ccc4c(c3)OCO4)CC2)s1)c1ccccc1Cl (stereo partly drawn) [Example 490] |  | 10 to 25 µM | 25 to 100% |
| O=C(Nc1ncc(C(c2ccccc2Cl)N2CC[C@@H](O)C2)s1)C1(c2ccccc2)CC1 (stereo partly drawn) [Example 423] |  | < 10 µM | > 100% |
| COc1ccc(C2(C(=O)Nc3ncc(C(c4ccccc4Cl)N4CC[C@@H](O)C4)s3)CC2)cc1OC (stereo partly drawn) [Example 451] |  | < 10 µM | > 100% |
| O=C(Nc1ncc(C(Cc2ccccc2Cl)N2CCOCC2)s1)C1(c2ccc3c(c2)OCO3)CC1 (stereo not drawn) [Example 461] |  | < 10 µM | > 100% |
| CN(C)C(Cc1ccccc1Cl)c1cnc(NC(=O)C2(c3ccc4c(c3)OCO4)CC2)s1 (stereo not drawn) [Example 457] |  | < 10 µM | > 100% |
| O=C(Nc1nc(-c2ccccc2Cl)cs1)C1(c2ccc3c(c2)OCO3)CC1 [Example 81] | +++ (“+++” means>100%) | < 10 µM |  |
